The NIST ThermoML archive (doi:10.1021/je200589f)
Numbers after ± are expanded uncertainties.

How the values were obtained:
[1] = for viscosity / mass density: 101.33 kPa, Liquid; for surface tension liquid-gas: Pendant drop shape; for mass density: Vibrating tube method
[2] = refractive index (Na D-line) (dimensionless); settings: 101.33 kPa, Liquid, Standard Abbe refractometry

In the case of Cn1cc[n+](CCCCCCO)c1.[Cl-] [3-(6-hydroxyhexyl)-1-methylimidazolium chloride], the viscosity ([1]; 293.15 K) is reported as 1025.9 ± 130 mPa·s, the surface tension liquid-gas ([1]; 298.15 K) is reported as 49.95 ± 0.77 mN/m and the viscosity ([1]; 298.15 K) is reported as 679.8 ± 72 mPa·s. The surface tension liquid-gas ([1]; 303.15 K) was 48.75 ± 0.76 mN/m, the viscosity ([1]; 303.15 K) was 489.7 ± 46 mPa·s and the mass density ([1]; 303.15 K) was 1119.49 ± 1.1 kg/m3. It also gave a surface tension liquid-gas ([1]; 308.15 K) of 47.75 ± 0.75 mN/m, a viscosity ([1]; 308.15 K) of 357.6 ± 29 mPa·s and a mass density ([1]; 308.15 K) of 1116.65 ± 1.1 kg/m3. It also gave a surface tension liquid-gas ([1]; 313.15 K) of 46.65 ± 0.73 mN/m, a viscosity ([1]; 313.15 K) of 249.7 ± 16 mPa·s and a mass density ([1]; 313.15 K) of 1113.91 ± 1.1 kg/m3. For the same compound, the surface tension liquid-gas ([1]; 318.15 K) was 45.35 ± 0.72 mN/m, the viscosity ([1]; 318.15 K) was 188 ± 10 mPa·s and the mass density ([1]; 318.15 K) was 1111.28 ± 1.1 kg/m3. For the same compound, the surface tension liquid-gas ([1]; 323.15 K) was 43.95 ± 0.71 mN/m, the viscosity ([1]; 323.15 K) was 143.4 ± 6.3 mPa·s and the mass density ([1]; 323.15 K) was 1108.63 ± 1.1 kg/m3. It also gave a viscosity ([1]; 328.15 K) of 116.6 ± 4.2 mPa·s, a mass density ([1]; 328.15 K) of 1105.92 ± 1.1 kg/m3 and a viscosity ([1]; 333.15 K) of 91.2 ± 2.4 mPa·s. It also gave a mass density ([1]; 333.15 K) of 1103.4 ± 1.1 kg/m3, a viscosity ([1]; 338.15 K) of 75.7 ± 1.6 mPa·s and a mass density ([1]; 338.15 K) of 1100.78 ± 1 kg/m3. It also gave a viscosity ([1]; 343.15 K) of 60.6 ± 1 mPa·s, a mass density ([1]; 343.15 K) of 1098.14 ± 1 kg/m3 and a viscosity ([1]; 348.15 K) of 51.3 ± 0.7 mPa·s. The mass density ([1]; 348.15 K) was 1095.59 ± 1 kg/m3, the viscosity ([1]; 353.15 K) was 43.8 ± 0.7 mPa·s and the mass density ([1]; 353.15 K) was 1092.92 ± 1 kg/m3. The refractive index ([2]; 293.15 K) was 1.5106 ± 0.0005, the refractive index ([2]; 298.15 K) was 1.5093 ± 0.0005 and the refractive index ([2]; 303.15 K) was 1.508 ± 0.0005. It also gave a refractive index ([2]; 308.15 K) of 1.5067 ± 0.0005, a refractive index ([2]; 313.15 K) of 1.5054 ± 0.0005 and a refractive index ([2]; 318.15 K) of 1.5041 ± 0.0005. For the same compound, the refractive index ([2]; 323.15 K) was 1.5028 ± 0.0005, the refractive index ([2]; 328.15 K) was 1.5015 ± 0.0005 and the refractive index ([2]; 333.15 K) was 1.5002 ± 0.0005.
For OCCCCCCn1cc[nH+]c1.[Cl-] [1-(6-hydroxyhexyl)imidazolium chloride], the viscosity ([1]; 293.15 K) was 587.2 ± 59 mPa·s, the surface tension liquid-gas ([1]; 298.15 K) was 51.25 ± 0.78 mN/m and the viscosity ([1]; 298.15 K) was 420 ± 36 mPa·s. For the same compound, the surface tension liquid-gas ([1]; 303.15 K) was 50.05 ± 0.77 mN/m, the viscosity ([1]; 303.15 K) was 320.1 ± 24 mPa·s and the mass density ([1]; 303.15 K) was 1136.59 ± 1.1 kg/m3. The surface tension liquid-gas ([1]; 308.15 K) was 48.85 ± 0.76 mN/m, the viscosity ([1]; 308.15 K) was 245.6 ± 16 mPa·s and the mass density ([1]; 308.15 K) was 1133.52 ± 1.1 kg/m3. The surface tension liquid-gas ([1]; 313.15 K) was 47.75 ± 0.75 mN/m, the viscosity ([1]; 313.15 K) was 180.5 ± 9.6 mPa·s and the mass density ([1]; 313.15 K) was 1130.53 ± 1.1 kg/m3. It also gave a surface tension liquid-gas ([1]; 318.15 K) of 46.4 ± 0.73 mN/m, a viscosity ([1]; 318.15 K) of 140.6 ± 6.1 mPa·s and a mass density ([1]; 318.15 K) of 1127.58 ± 1.1 kg/m3. For the same compound, the surface tension liquid-gas ([1]; 323.15 K) was 44.95 ± 0.72 mN/m, the viscosity ([1]; 323.15 K) was 110.4 ± 3.7 mPa·s and the mass density ([1]; 323.15 K) was 1124.63 ± 1.1 kg/m3. For the same compound, the viscosity ([1]; 328.15 K) was 91.4 ± 2.4 mPa·s, the mass density ([1]; 328.15 K) was 1121.67 ± 1.1 kg/m3 and the viscosity ([1]; 333.15 K) was 72.6 ± 1.4 mPa·s. It also gave a mass density ([1]; 333.15 K) of 1118.72 ± 1.1 kg/m3, a viscosity ([1]; 338.15 K) of 60.7 ± 1 mPa·s and a mass density ([1]; 338.15 K) of 1115.77 ± 1.1 kg/m3. It also gave a viscosity ([1]; 343.15 K) of 48.9 ± 0.8 mPa·s, a mass density ([1]; 343.15 K) of 1112.84 ± 1.1 kg/m3 and a viscosity ([1]; 348.15 K) of 41.3 ± 0.7 mPa·s. It also gave a mass density ([1]; 348.15 K) of 1109.92 ± 1.1 kg/m3, a viscosity ([1]; 353.15 K) of 35 ± 0.6 mPa·s and a mass density ([1]; 353.15 K) of 1107.03 ± 1.1 kg/m3. It also gave a refractive index ([2]; 293.15 K) of 1.5093 ± 0.0005, a refractive index ([2]; 298.15 K) of 1.508 ± 0.0005 and a refractive index ([2]; 303.15 K) of 1.5067 ± 0.0005. For the same compound, the refractive index ([2]; 308.15 K) was 1.5054 ± 0.0005, the refractive index ([2]; 313.15 K) was 1.5041 ± 0.0005 and the refractive index ([2]; 318.15 K) was 1.5028 ± 0.0005. It also gave a refractive index ([2]; 323.15 K) of 1.5015 ± 0.0005, a refractive index ([2]; 328.15 K) of 1.5002 ± 0.0005 and a refractive index ([2]; 333.15 K) of 1.4989 ± 0.0005.
CCn1cc[n+](CCCCCCO)c1.[Cl-] [1-ethyl-3-(6-hydroxyhexyl)-1H-imidazolium chloride] showed a viscosity ([1]; 293.15 K) of 1348.1 ± 180 mPa·s, a surface tension liquid-gas ([1]; 298.15 K) of 42.32 ± 0.69 mN/m and a viscosity ([1]; 298.15 K) of 861.7 ± 100 mPa·s. It also gave a surface tension liquid-gas ([1]; 303.15 K) of 41.3 ± 0.68 mN/m, a viscosity ([1]; 303.15 K) of 604.5 ± 61 mPa·s and a mass density ([1]; 303.15 K) of 1101.74 ± 1.1 kg/m3. For the same compound, the surface tension liquid-gas ([1]; 308.15 K) was 39.95 ± 0.67 mN/m, the viscosity ([1]; 308.15 K) was 431.3 ± 38 mPa·s and the mass density ([1]; 308.15 K) was 1098.91 ± 1 kg/m3. The surface tension liquid-gas ([1]; 313.15 K) was 38.75 ± 0.66 mN/m, the viscosity ([1]; 313.15 K) was 294 ± 21 mPa·s and the mass density ([1]; 313.15 K) was 1096.23 ± 1 kg/m3. The surface tension liquid-gas ([1]; 318.15 K) was 37.4 ± 0.64 mN/m, the viscosity ([1]; 318.15 K) was 217.7 ± 13 mPa·s and the mass density ([1]; 318.15 K) was 1093.53 ± 1 kg/m3. The surface tension liquid-gas ([1]; 323.15 K) was 36.25 ± 0.63 mN/m, the viscosity ([1]; 323.15 K) was 163.9 ± 8.1 mPa·s and the mass density ([1]; 323.15 K) was 1090.95 ± 1 kg/m3. It also gave a viscosity ([1]; 328.15 K) of 132.2 ± 5.4 mPa·s, a mass density ([1]; 328.15 K) of 1088.27 ± 1 kg/m3 and a viscosity ([1]; 333.15 K) of 102.6 ± 3.2 mPa·s. For the same compound, the mass density ([1]; 333.15 K) was 1085.63 ± 1 kg/m3, the viscosity ([1]; 338.15 K) was 84.7 ± 2.1 mPa·s and the mass density ([1]; 338.15 K) was 1083.07 ± 1 kg/m3. For the same compound, the viscosity ([1]; 343.15 K) was 67.8 ± 1.2 mPa·s, the mass density ([1]; 343.15 K) was 1080.43 ± 1 kg/m3 and the viscosity ([1]; 348.15 K) was 57.4 ± 0.9 mPa·s. It also gave a mass density ([1]; 348.15 K) of 1077.84 ± 1 kg/m3, a viscosity ([1]; 353.15 K) of 49.1 ± 0.8 mPa·s and a mass density ([1]; 353.15 K) of 1075.27 ± 0.99 kg/m3. For the same compound, the refractive index ([2]; 293.15 K) was 1.5115 ± 0.0005, the refractive index ([2]; 298.15 K) was 1.5102 ± 0.0005 and the refractive index ([2]; 303.15 K) was 1.5089 ± 0.0005. It also gave a refractive index ([2]; 308.15 K) of 1.5076 ± 0.0005, a refractive index ([2]; 313.15 K) of 1.5063 ± 0.0005 and a refractive index ([2]; 318.15 K) of 1.505 ± 0.0005. The refractive index ([2]; 323.15 K) was 1.5037 ± 0.0005, the refractive index ([2]; 328.15 K) was 1.5024 ± 0.0005 and the refractive index ([2]; 333.15 K) was 1.5011 ± 0.0005.
With CCCCn1cc[n+](CCCCCCO)c1.[Cl-] [1-butyl-3-(6-hydroxyhexyl)-1H-imidazolium chloride] the viscosity ([1]; 293.15 K) was 1489.7 ± 200 mPa·s, the surface tension liquid-gas ([1]; 298.15 K) was 32.05 ± 0.59 mN/m and the viscosity ([1]; 298.15 K) was 983.3 ± 120 mPa·s. It also gave a surface tension liquid-gas ([1]; 303.15 K) of 30.8 ± 0.58 mN/m, a viscosity ([1]; 303.15 K) of 707 ± 76 mPa·s and a mass density ([1]; 303.15 K) of 1063.33 ± 0.97 kg/m3. For the same compound, the surface tension liquid-gas ([1]; 308.15 K) was 29.65 ± 0.57 mN/m, the viscosity ([1]; 308.15 K) was 515.8 ± 49 mPa·s and the mass density ([1]; 308.15 K) was 1060.6 ± 0.96 kg/m3. The surface tension liquid-gas ([1]; 313.15 K) was 28.35 ± 0.56 mN/m, the viscosity ([1]; 313.15 K) was 360.3 ± 29 mPa·s and the mass density ([1]; 313.15 K) was 1057.85 ± 0.96 kg/m3. For the same compound, the surface tension liquid-gas ([1]; 318.15 K) was 27.3 ± 0.55 mN/m, the viscosity ([1]; 318.15 K) was 271.5 ± 19 mPa·s and the mass density ([1]; 318.15 K) was 1055.25 ± 0.95 kg/m3. For the same compound, the surface tension liquid-gas ([1]; 323.15 K) was 25.9 ± 0.54 mN/m, the viscosity ([1]; 323.15 K) was 207.7 ± 12 mPa·s and the mass density ([1]; 323.15 K) was 1052.52 ± 0.95 kg/m3. The viscosity ([1]; 328.15 K) was 169.4 ± 8.6 mPa·s, the mass density ([1]; 328.15 K) was 1049.89 ± 0.94 kg/m3 and the viscosity ([1]; 333.15 K) was 133 ± 5.5 mPa·s. It also gave a mass density ([1]; 333.15 K) of 1047.18 ± 0.93 kg/m3, a viscosity ([1]; 338.15 K) of 110.8 ± 3.8 mPa·s and a mass density ([1]; 338.15 K) of 1044.46 ± 0.93 kg/m3. For the same compound, the viscosity ([1]; 343.15 K) was 89.4 ± 2.3 mPa·s, the mass density ([1]; 343.15 K) was 1041.73 ± 0.92 kg/m3 and the viscosity ([1]; 348.15 K) was 76.1 ± 1.6 mPa·s. For the same compound, the mass density ([1]; 348.15 K) was 1039.05 ± 0.92 kg/m3, the viscosity ([1]; 353.15 K) was 65.3 ± 1.1 mPa·s and the mass density ([1]; 353.15 K) was 1036.32 ± 0.91 kg/m3. The refractive index ([2]; 293.15 K) was 1.5132 ± 0.0005, the refractive index ([2]; 298.15 K) was 1.5119 ± 0.0005 and the refractive index ([2]; 303.15 K) was 1.5106 ± 0.0005. For the same compound, the refractive index ([2]; 308.15 K) was 1.5093 ± 0.0005, the refractive index ([2]; 313.15 K) was 1.508 ± 0.0005 and the refractive index ([2]; 318.15 K) was 1.5067 ± 0.0005. The refractive index ([2]; 323.15 K) was 1.5054 ± 0.0005, the refractive index ([2]; 328.15 K) was 1.5041 ± 0.0005 and the refractive index ([2]; 333.15 K) was 1.5028 ± 0.0005.
